system: P. aeruginosa NCTC11454; assay: Antimicrobial susceptibility testing: 50% growth inhibitory concentration (IC50) determination; format: cell-based; conditions: Pseudomonas aeruginosa, Iso-Sensitest broth, OD 600 nm every 20 minutes over 16h, growth inhibition during logarithmic growth
Protocol: The in vitro antimicrobial activity of the compounds was alternatively determined according to the following procedure: The assay used a 10-points Iso-Sensitest broth medium to measure quantitatively the in vitro activity of the compounds against P. aeruginosa NCTC11454. Stock compounds in DMSO were serially twofold diluted (e.g. range from 50 to 0.097 μM final concentration) in 384 wells microtiter plates and inoculated with 49 μl the bacterial suspension in Iso-Sensitest medium to have a final cell concentration of ˜5×10^(5) CFU/ml in a final volume/well of 50 ul/well. Microtiter plates were incubated at 35±2° C. Bacterial cell growth was determined with the measurement of optical density at λ=600 nm each 20 minutes over a time course of 16h. Growth inhibition was calculated during the logarithmic growth of the bacterial cells with determination of the concentration inhibiting 50% (IC50) and 90% (IC90) of the growth. Table 2 provides the 50% growth inhibitory concentrations (IC50) in micromoles per liter of the compounds of present invention obtained against P. aeruginosa NCTC11454.

| IC50 | Compound |
| --- | --- |
| 27.8 µM | CN1C(=O)[C@H](CCCCN)NC(=O)[C@H](CCCN)NCc2ccccc2Sc2c(Cl)cc(-c3cccnc3)cc2CNC(=O)[C@@H]1Cc1c[nH]c2ccccc12 [Example 34, (12S,15S,18S)-15-(4-Amino-butyl)-18-(3-amino-propyl)-4-chloro-12-(1H-indol-3-ylmethyl)-13-methyl-6-pyridin-3-yl-2-thia-10,13,16,19-tetraaza-tricyclo[19.4.0.0*3,8*]pentacosa-1(25),3,5,7,21,23-hexaene-11,14,17-trione] |
| 8.1 µM | CN1C(=O)[C@H](CCCCN)NC(=O)[C@H](CCCN)NCc2cccnc2Sc2c(Cl)cc(-c3ccccc3)cc2CNC(=O)[C@@H]1Cc1c[nH]c2ccccc12 [Example 35, 11-(3-amino-propyl)-25-chloro-17-(1H-indol-3-ylmethyl)-16-methyl-23-phenyl-2-thia-4,10,13,16,19-pentaaza-tricyclo[9.4.0.0*3,8*]pentacsa-(25),3(8),4,6,21,23-hexaene-12,15,18-trione] |
| 12.5 µM | CN1C(=O)[C@H](CCCCN)NC(=O)[C@H](CCCN)NCc2ccccc2Sc2c(Cl)cc(Br)cc2CNC(=O)[C@@H]1Cc1c[nH]c2ccccc12 [Example 36, (12S,15S,18S)-15-(4-Amino-butyl)-18-(3-amino-propyl)-6-bromo-4-chloro-12-(1H-indol-3-ylmethyl)-13-methyl-2-thia-10,13,16,19-tetraaza-tricyclo[19.4.0.0*3,8*]pentacosa-1(25),3,5,7,21,23-hexaene-11,14,17-trione] |
| 14.5 µM | CN1C(=O)[C@H](CCCCN)NC(=O)[C@H](CCC(N)=O)NCc2ccccc2Sc2c(cc(-c3ccccc3)cc2C(F)(F)F)CNC(=O)[C@@H]1Cc1c[nH]c2ccccc12 [Example 38, 3-[(11S,14S,17S)-14-(4-Amino-butyl)-17-(1H-indol-3-ylmethyl)-16-methyl-12,15,18-trioxo-23-phenyl-25-trifluoromethyl-2-thia-10,13,16,19-tetraaza-tricyclo[19.4.0.0*3,8*]pentacosa-1(25),3,5,7,21,23-hexaen-11-yl]-propionamide] |
| 23.5 µM | CN1C(=O)[C@H](CCC(N)=O)NC(=O)[C@H](CCCN)NCc2ccccc2Sc2c(cc(-c3ccccc3)cc2C(F)(F)F)CNC(=O)[C@@H]1Cc1c[nH]c2ccccc12 [Example 39, 3-[(11S,14S,17S)-11-(3-Amino-propyl)-17-(1H-indol-3-ylmethyl)-16-methyl-12,15,18-trioxo-23-phenyl-25-trifluoromethyl-2-thia-10,13,16,19-tetraaza-tricyclo[19.4.0.0*3,8*]pentacosa-1(25),3,5,7,21,23-hexaen-14-yl]-propionamide] |
| 25.1 µM | CN1C(=O)[C@H](CCCCN)NC(=O)[C@H](CCCN)NCc2cccnc2Sc2c(Cl)cc(-c3ccnc(Cl)c3)cc2CNC(=O)[C@@H]1Cc1c[nH]c2ccccc12 [Example 40, (11S,14S,17S)-14-(4-Amino-butyl)-11-(3-amino-propyl)-25-chloro-23-(2-chloro-pyridin-4-yl)-17-(1H-indol-3-ylmethyl)-16-methyl-2-thia-4,10,13,16,19-pentaaza-tricyclo[19.4.0.0*3,8*]pentacosa-1(21),3,5,7,22,24-hexaene-12,15,18-trione] |
| 6.5 µM | CN1C(=O)[C@H](CCCCN)NC(=O)[C@H](CCCN)NCc2ccccc2Sc2c(ccc(Br)c2Cl)CNC(=O)[C@@H]1Cc1c[nH]c2ccccc12 [Example 41, (12S,15S,18S)-15-(4-Amino-butyl)-18-(3-amino-propyl)-5-bromo-4-chloro-12-(1H-indol-3-ylmethyl)-13-methyl-2-thia-10,13,16,19-tetraaza-tricyclo[19.4.0.0*3,8*]pentacosa-1(25),3,5,7,21,23-hexaene-11,14,17-trione] |
| 3.47 µM | CN1C(=O)[C@H](CCCCN)NC(=O)[C@H](CCCN)NCc2ccccc2Sc2c(ccc(-c3ccccc3)c2Cl)CNC(=O)[C@@H]1Cc1c[nH]c2ccccc12 [Example 42, (12S,15S,18S)-15-(4-Amino-butyl)-18-(3-amino-propyl)-4-chloro-12-(1H-indol-3-ylmethyl)-13-methyl-5-phenyl-2-thia-10,13,16,19-tetraaza-tricyclo[19.4.0.0*3,8*]pentacosa-1(25),3,5,7,21,23-hexaene-11,14,17-trione] |
| 22.9 µM | CN1C(=O)[C@H](CCCCN)NC(=O)[C@H](CCCN)NCc2ccccc2Sc2ncc(Cl)cc2CNC(=O)[C@@H]1Cc1c[nH]c2ccccc12 [Example 43] |
| 27 µM | Cc1[nH]c2ccccc2c1C[C@H]1C(=O)NCc2cc(-c3ccnc(Cl)c3)cc(Cl)c2Sc2ncccc2CN[C@@H](CCCN)C(=O)N[C@@H](CCCCN)C(=O)N1C [Example 44, (11S,14S,17S)-14-(4-Amino-butyl)-11-(3-amino-propyl)-25-chloro-23-(2-chloro-pyridin-4-yl)-16-methyl-17-(2-methyl-1H-indol-3-ylmethyl)-2-thia-4,10,13,16,19-pentaaza-tricyclo[19.4.0.0*3,8*]pentacosa-1(25),3(8),4,6,21,23-hexaene-12,15,18-trione] |
| 6.07 µM | CN1C(=O)[C@H](CCCCN)NC(=O)[C@H](CCCN)NCc2cccnc2Sc2c(Cl)cc(C#CCOCc3ccccc3)cc2CNC(=O)[C@@H]1Cc1c[nH]c2ccccc12 [Example 45, (11S,14S,17S)-14-(4-Amino-butyl)-11-(3-amino-propyl)-23-(3-benzyloxy-prop-1-ynyl)-25-chloro-17-(1H-indol-3-ylmethyl)-16-methyl-2-thia-4,10,13,16,19-pentaaza-tricyclo[19.4.0.0*3,8*]pentacosa-1(25),3(8),4,6,21,23-hexaene-12,15,18-trione] |
| 20.3 µM | CN1C(=O)[C@H](CCCCN)NC(=O)[C@H](CCCN)NCc2ccccc2Sc2nc(N3CCOCC3)ccc2CNC(=O)[C@@H]1Cc1c[nH]c2ccccc12 [Example 46] |
| 2.75 µM | Cc1[nH]c2ccccc2c1C[C@H]1C(=O)NCc2c(-c3ccncc3)ccc(Cl)c2Sc2ncccc2CN[C@@H](CCCN)C(=O)N[C@@H](CCCCN)C(=O)N1C [Example 47, (11S,14S,17S)-14-(4-Amino-butyl)-11-(3-amino-propyl)-25-chloro-16-methyl-17-(2-methyl-1H-indol-3-ylmethyl)-22-pyridin-4-yl-2-thia-4,10,13,16,19-pentaaza-tricyclo[19.4.0.0*3,8*]pentacosa-1(25),3(8),4,6,21,23-hexaene-12,15,18-trione] |
| 14.2 µM | CN1C(=O)[C@H](CCCCN)NC(=O)[C@H](CCCN)NCc2cc(Br)ccc2Sc2c(Cl)cccc2CNC(=O)[C@@H]1Cc1c[nH]c2ccccc12 [Example 48, (12S,15S,18S)-15-(4-Amino-butyl)-18-(3-amino-propyl)-23-bromo-4-chloro-12-(1H-indol-3-ylmethyl)-13-methyl-2-thia-10,13,16,19-tetraaza-tricyclo[19.4.0.0*3,8*]pentacosa-1(25),3,5,7,21,23-hexaene-11,14,17-trione] |
| 10.8 µM | CN1C(=O)[C@H](CCCCN)NC(=O)[C@H](CCCN)NCc2cc(-c3ccccc3)ccc2Sc2c(Cl)cccc2CNC(=O)[C@@H]1Cc1c[nH]c2ccccc12 [Example 49, (12S,15S,18S)-15-(4-Amino-butyl)-18-(3-amino-propyl)-4-chloro-12-(1H-indol-3-ylmethyl)-13-methyl-23-phenyl-2-thia-10,13,16,19-tetraaza-tricyclo[19.4.0.0*3,8*]pentacosa-1(25),3,5,7,21,23-hexaene-11,14,17-trione] |
| 8.47 µM | CN1C(=O)[C@H](CCCCN)NC(=O)[C@H](CCCN)NCc2cc(-c3ccc(CN)cc3)ccc2Sc2c(Cl)cccc2CNC(=O)[C@@H]1Cc1c[nH]c2ccccc12 [Example 50, (12S,15S,18S)-15-(4-Amino-butyl)-23-(4-aminomethyl-phenyl)-18-(3-amino-propyl)-4-chloro-12-(1H-indol-3-ylmethyl)-13-methyl-2-thia-10,13,16,19-tetraaza-tricyclo[19.4.0.0*3,8*]pentacosa-1(25),3,5,7,21,23-hexaene-11,14,17-trione] |
| 12.3 µM | CN1C(=O)[C@H](CCCCN)NC(=O)[C@H](CCCN)NCc2ccc(Br)cc2Sc2c(Cl)cccc2CNC(=O)[C@@H]1Cc1c[nH]c2ccccc12 [Example 51, (12S,15S,18S)-15-(4-Amino-butyl)-18-(3-amino-propyl)-24-bromo-4-chloro-12-(1H-indol-3-ylmethyl)-13-methyl-2-thia-10,13,16,19-tetraaza-tricyclo[19.4.0.0*3,8*]pentacosa-1(25),3,5,7,21,23-hexaene-11,14,17-trione] |
| 11.6 µM | CN1C(=O)[C@H](CCCCN)NC(=O)[C@H](CCCN)NCc2ccc(-c3ccccc3)cc2Sc2c(Cl)cccc2CNC(=O)[C@@H]1Cc1c[nH]c2ccccc12 [Example 52, (12S,15S,18S)-15-(4-Amino-butyl)-18-(3-amino-propyl)-4-chloro-12-(1H-indol-3-ylmethyl)-13-methyl-24-phenyl-2-thia-10,13,16,19-tetraaza-tricyclo[19.4.0.0*3,8*]pentacosa-1(25),3,5,7,21,23-hexaene-11,14,17-trione] |
| 29.1 µM | CN1C(=O)[C@H](CCCCN)NC(=O)[C@H](CCCN)NCc2cccnc2Sc2c(Cl)ccc(-c3cccc(CCN)c3)c2CNC(=O)[C@@H]1Cc1c[nH]c2ccccc12 [Example 54, (11S,14S,17S)-14-(4-Amino-butyl)-22-[3-(2-amino-ethyl)-phenyl]-11-(3-amino-propyl)-25-chloro-17-(1H-indol-3-ylmethyl)-16-methyl-2-thia-4,10,13,16,19-pentaaza-tricyclo[19.4.0.0*3,8*]pentacosa-1(25),3(8),4,6,21,23-hexaene-12,15,18-trione] |

From patent US11066443B2 (Hoffmann-La Roche Inc., priority 2017, dated 2021)
